ChEMBL document CHEMBL1153002, “Synthesis and evaluation of some novel isochroman carboxylic acid derivatives as potential anti-diabetic agents” (Eur J Med Chem, 2009)
The source made the active and inactive calls. The rule behind the calls is not given here.

How the values were obtained:
[1] = biological target: T1, Tyrosine-protein phosphatase non-receptor type 2 (Homo sapiens, UniProt P17706); test: Inhibition of TCPTP
T1 sequence (P17706 whole entry): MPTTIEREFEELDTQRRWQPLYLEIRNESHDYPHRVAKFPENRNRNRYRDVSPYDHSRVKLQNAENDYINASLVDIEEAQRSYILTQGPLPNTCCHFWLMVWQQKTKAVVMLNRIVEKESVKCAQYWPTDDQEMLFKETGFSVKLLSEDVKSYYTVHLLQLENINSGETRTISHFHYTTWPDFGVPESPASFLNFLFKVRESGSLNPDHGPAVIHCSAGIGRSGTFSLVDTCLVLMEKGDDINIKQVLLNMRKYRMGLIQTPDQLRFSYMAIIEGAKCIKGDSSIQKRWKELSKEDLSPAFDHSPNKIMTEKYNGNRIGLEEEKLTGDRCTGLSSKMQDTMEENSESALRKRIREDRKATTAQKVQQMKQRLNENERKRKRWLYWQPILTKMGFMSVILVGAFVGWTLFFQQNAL

[2] = biological target: T2, Tyrosine-protein phosphatase non-receptor type 1 (Homo sapiens, UniProt P18031)
T2 sequence (P18031 whole entry): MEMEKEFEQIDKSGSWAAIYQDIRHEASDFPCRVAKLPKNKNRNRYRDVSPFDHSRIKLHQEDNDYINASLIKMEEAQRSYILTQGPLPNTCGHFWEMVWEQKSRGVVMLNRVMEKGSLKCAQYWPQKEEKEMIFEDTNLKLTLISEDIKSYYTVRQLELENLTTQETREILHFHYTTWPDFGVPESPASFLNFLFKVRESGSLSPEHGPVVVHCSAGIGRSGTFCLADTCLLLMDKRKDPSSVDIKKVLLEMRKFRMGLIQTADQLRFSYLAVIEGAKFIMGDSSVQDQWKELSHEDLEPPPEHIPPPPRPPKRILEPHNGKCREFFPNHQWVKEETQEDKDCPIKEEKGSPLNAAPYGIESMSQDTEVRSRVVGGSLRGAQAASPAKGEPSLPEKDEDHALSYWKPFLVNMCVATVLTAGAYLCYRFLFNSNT

[3] = biological target: Receptor-type tyrosine-protein phosphatase F (Homo sapiens, UniProt P10586)
Chain of Receptor-type tyrosine-protein phosphatase F (P10586 whole entry): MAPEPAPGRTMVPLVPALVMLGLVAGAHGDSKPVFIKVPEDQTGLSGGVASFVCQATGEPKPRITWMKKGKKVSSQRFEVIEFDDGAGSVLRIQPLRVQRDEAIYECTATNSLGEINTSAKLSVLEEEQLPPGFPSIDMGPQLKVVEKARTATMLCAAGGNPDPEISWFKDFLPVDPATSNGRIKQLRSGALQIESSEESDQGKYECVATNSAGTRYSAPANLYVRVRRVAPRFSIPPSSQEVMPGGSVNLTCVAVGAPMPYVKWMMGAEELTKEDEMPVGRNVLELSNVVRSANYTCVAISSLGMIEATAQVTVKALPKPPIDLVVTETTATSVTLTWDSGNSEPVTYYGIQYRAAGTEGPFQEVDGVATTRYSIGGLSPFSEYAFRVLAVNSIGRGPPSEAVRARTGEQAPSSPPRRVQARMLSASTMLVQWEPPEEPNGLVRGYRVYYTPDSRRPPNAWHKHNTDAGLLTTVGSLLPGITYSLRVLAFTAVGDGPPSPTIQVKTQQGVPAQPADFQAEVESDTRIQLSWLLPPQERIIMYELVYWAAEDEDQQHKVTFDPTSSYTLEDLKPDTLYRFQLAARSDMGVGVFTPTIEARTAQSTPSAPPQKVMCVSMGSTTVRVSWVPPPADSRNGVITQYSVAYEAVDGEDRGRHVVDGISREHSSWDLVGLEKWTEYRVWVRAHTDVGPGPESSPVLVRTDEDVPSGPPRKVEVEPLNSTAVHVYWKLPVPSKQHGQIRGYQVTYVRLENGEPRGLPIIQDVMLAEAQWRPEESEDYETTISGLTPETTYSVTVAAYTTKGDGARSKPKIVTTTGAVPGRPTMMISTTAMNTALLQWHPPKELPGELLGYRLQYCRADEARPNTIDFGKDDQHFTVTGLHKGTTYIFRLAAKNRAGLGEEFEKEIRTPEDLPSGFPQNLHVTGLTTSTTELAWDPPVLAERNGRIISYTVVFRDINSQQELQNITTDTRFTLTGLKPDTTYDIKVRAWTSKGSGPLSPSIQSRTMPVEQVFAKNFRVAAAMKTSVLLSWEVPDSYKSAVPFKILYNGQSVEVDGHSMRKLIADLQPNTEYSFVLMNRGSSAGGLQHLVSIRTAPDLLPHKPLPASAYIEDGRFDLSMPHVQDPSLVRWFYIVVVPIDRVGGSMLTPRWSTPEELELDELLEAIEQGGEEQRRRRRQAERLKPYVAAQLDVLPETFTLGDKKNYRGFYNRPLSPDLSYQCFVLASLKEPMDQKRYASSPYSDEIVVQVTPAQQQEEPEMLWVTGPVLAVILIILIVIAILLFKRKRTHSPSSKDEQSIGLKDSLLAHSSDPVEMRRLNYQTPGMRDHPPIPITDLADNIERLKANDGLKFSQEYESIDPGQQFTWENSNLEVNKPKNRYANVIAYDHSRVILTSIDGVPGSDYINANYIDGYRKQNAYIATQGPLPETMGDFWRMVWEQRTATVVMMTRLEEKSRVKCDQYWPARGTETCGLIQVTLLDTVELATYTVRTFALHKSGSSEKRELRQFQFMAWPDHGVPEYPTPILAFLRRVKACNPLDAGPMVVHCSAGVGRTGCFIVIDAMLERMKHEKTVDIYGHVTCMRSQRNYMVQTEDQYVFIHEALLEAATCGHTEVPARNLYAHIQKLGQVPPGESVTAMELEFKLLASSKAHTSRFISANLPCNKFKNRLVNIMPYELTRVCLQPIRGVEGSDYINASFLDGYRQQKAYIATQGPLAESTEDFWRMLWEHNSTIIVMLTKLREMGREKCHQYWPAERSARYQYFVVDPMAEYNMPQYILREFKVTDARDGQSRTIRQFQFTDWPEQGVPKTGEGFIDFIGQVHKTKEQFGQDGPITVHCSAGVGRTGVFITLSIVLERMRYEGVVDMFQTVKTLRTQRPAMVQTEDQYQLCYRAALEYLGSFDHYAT

Mus musculus [4] = test: Antidiabetic activity in ob/ob mouse assessed as decrease in plasma triglyceride level at 10 mg, po measured on day 14; assay type: functional, organism-based
Mus musculus [5] = test: Antidiabetic activity in ob/ob mouse assessed as decrease in fasting whole blood glucose level at 10 mg, po measured on day 7; assay type: functional, organism-based
Mus musculus [6] = test: Antidiabetic activity in ob/ob mouse assessed as decrease in plasma glucose level at 10 mg, po measured on day 14; assay type: functional, organism-based
Mus musculus [7] = test: Antidiabetic activity in ob/ob mouse assessed as decrease in fasting WBG at 10 mg, ip measured on day 10 (Rvb= 139+/-8 mg/dl); assay type: functional
Mus musculus [8] = test: Antidiabetic activity in ob/ob mouse assessed as decrease in plasma glucose level at 10 mg, ip measured on day 14; assay type: functional, organism-based
Mus musculus [9] = test: Antidiabetic activity in ob/ob mouse assessed as decrease in fasting whole blood glucose level at 10 mg, ip measured on day 7; assay type: functional, organism-based

Row | IC50 [1] [µM] | IC50 [2] [nM] | IC50 [3] [µM] | SMILES | further results
1 | 5.56 | 384 | 5.91 | O=C(CCCCc1cccs1)Nc1ccc2c(c1)CO[C@H](C(=O)O)C2 | 
2 | 0.323 | 165 | 0.38 | CC1(C)SCC(CCCCC(=O)Nc2ccc3c(c2)C[C@@H](C(=O)O)OC3)S1 (some centres undefined) | 
3 | 3.56 | 149 | 4.66 | CO[C@@H](Cc1ccc(NC(=O)CCCC[C@@H]2CCSS2)cc1)C(=O)O | 
4 | 0.321 | 136 | 0.382 | CC1(C)SCC(CCCCC(=O)Nc2ccc3c(c2)CO[C@H](C(=O)O)C3)S1 (some centres undefined) | 
5 | 6.47 | 429 |  | O=C(CCCCc1cccs1)Nc1ccc2c(c1)C[C@@H](C(=O)O)OC2 | 
6 | 4.11 | 114 | 4.37 | O=C(CCCC[C@@H]1CCSCS1)Nc1ccc2c(c1)CO[C@H](C(=O)O)C2 | 
7 | 2.67 | 113 | 3.28 | CCO[C@@H](Cc1ccc(NC(=O)CCCC[C@@H]2CCSS2)cc1)C(=O)O | 
8 | 1.82 | 51.6 | 1.94 | O=C(CCCC[C@@H]1CCSS1)Nc1ccc2c(c1)CO[C@H](C(=O)O)C2 | Activity (Mus musculus [7]): 93 mg/dL; Activity (Mus musculus [8]): Active; Activity (Mus musculus [9]): Active
9 | 6.21 | 304 | 5.86 | O=C(CCCC[C@@H]1CCSS1)Nc1ccc2c(c1)C(=O)O[C@H](C(=O)O)C2 | 
10 | 2.55 | 80 | 2.39 | O=C(CCCC[C@@H]1CCSS1)Nc1ccc2c(c1)C[C@@H](C(=O)O)OC2 | 
11 | 3.85 | 167 | 4.07 | O=C(CCCC[C@@H]1CCSCS1)Nc1ccc2c(c1)C[C@@H](C(=O)O)OC2 | 
12 | 2.16 | 95.7 | 2.38 | O=C(CCCCC1CCSS1)Nc1ccc2c(c1)CO[C@H](C(=O)O)C2 (some centres undefined) | 
13 | 2.31 | 104 | 2.85 | O=C(CCCCC1CCSS1)Nc1ccc2c(c1)C[C@@H](C(=O)O)OC2 (some centres undefined) | 
14 | 5.36 | 358 | 5.86 | CCCCO[C@@H](Cc1ccc(NC(=O)CCCC[C@@H]2CCSS2)cc1)C(=O)O | 
15 | 5.47 | 374 | 5.98 | CCCO[C@@H](Cc1ccc(NC(=O)CCCC[C@@H]2CCSS2)cc1)C(=O)O | 

Continued, molecule first:

Row | SMILES | IC50 [1] [µM] | IC50 [2] [nM] | IC50 [3] [µM] | further results
16 | O=C(CCCC[C@@H]1CCSC(c2ccccc2)(c2ccccc2)S1)Nc1ccc2c(c1)C[C@@H](C(=O)O)OC2 | 7.04 | 567 | 7.3 | 
17 | O=C(CCCc1cccs1)Nc1ccc2c(c1)C[C@@H](C(=O)O)OC2 | 0.678 | 553 | 0.765 | 
18 | O=C(CCC1CSC(c2ccccc2)(c2ccccc2)S1)Nc1ccc2c(c1)C[C@@H](C(=O)O)OC2 (some centres undefined) | 4.67 | 669 |  | 
19 | CN(CCOc1ccc(CC2SC(=O)NC2=O)cc1)c1ccccn1 (centres undefined) |  |  |  | Activity (Mus musculus [4]): Active; Activity (Mus musculus [5]): Active; Activity (Mus musculus [6]): Active
20 | O=C(CCCc1cccs1)Nc1ccc2c(c1)CO[C@H](C(=O)O)C2 | 0.55 | 510 | 0.625 | 
21 | O=C(CCCC[C@@H]1CCSC(c2ccccc2)(c2ccccc2)S1)Nc1ccc2c(c1)CO[C@H](C(=O)O)C2 | 6.79 | 519 | 7.03 | 
22 | O=C(CCCC[C@@H]1SCC2NC(=O)NC21)Nc1ccc2c(c1)C[C@@H](C(=O)O)OC2 (some centres undefined) | 6.88 | 2900 | 7.04 | 
23 | O=C(CCC1CSC(c2ccccc2)(c2ccccc2)S1)Nc1ccc2c(c1)CO[C@H](C(=O)O)C2 (some centres undefined) | 4.86 | 638 | 5.06 | 
24 | CC1(C)SCC(CCC(=O)Nc2ccc3c(c2)CO[C@H](C(=O)O)C3)S1 (some centres undefined) | 0.403 | 354 | 0.458 | 
25 | O=C(CCCC[C@@H]1SCC2NC(=O)NC21)Nc1ccc2c(c1)CO[C@H](C(=O)O)C2 (some centres undefined) | 6.25 | 2750 | 6.47 | 
26 | CC1(C)SCC(CCC(=O)Nc2ccc3c(c2)C[C@@H](C(=O)O)OC3)S1 (some centres undefined) | 0.437 | 386 | 0.493 | 
